Results on 1 compound are retold here after patent publication US20200069664A1, “METHODS FOR TREATING INFECTION” (Salix Pharmaceuticals, Ltd, priority 2010, published 2020).

In one assay the test system is C difficile isolates. The experiment in a line: In vitro susceptibility of C difficile isolates (agar dilution for rifaximin, Etest for rifampin). For orientation: In agar dilution, organisms are placed on agar that contains the substance at set levels.
A further assay has as its system EAEC. The experiment in a line: Effect of dialyzed supernatants of treated HEp-2 cells on EAEC adherence. Particulars: HEp-2 treated 24 h with 64 mg/ml (so in the source); chambered slides with or without HEp-2 cells, 3 h. The format is cell-based, E. coli. The method, then:
Supernatant dialysis. HEp-2 cells were cultured in T-175 flasks as described above. […] After 24 h, the medium was collected, loaded into regenerated cellulose dialysis tubing (cutoff, 6 to 8 kDa; Spectra/Por, Rancho Domiguez, Calif.), and dialyzed against 4 liters of PBS changed four times. Each dialysis step lasted at least 6 h and was carried out at 4° C. Dialyzed supernatants were either used immediately in adherence assays or stored at −20° C. until use.
The effect of supernatants on EAEC adherence was determined by mixing EAEC with the dialyzed media from the different antibiotic (or control) treatment groups and adding the bacteria to HEp-2 cells cultured in chambered slides or to chambered slides with no HEp-2 cells. Adherence was visualized microscopically as described above.

The test system of a further assay is EAEC strain O42. Type of assay: cell-based, E. coli.
The subject of a further assay is HEp-2 cells. Briefly: Cytokine array of supernatants of treated HEp-2 cells. Particulars: 64 μg/ml, 24 h; Panomics array of 36 cytokines.

By MIC50 is commonly meant the lowest concentration that inhibits either 50% of growth or 50% of the strains tested, depending on the study. Read a low MIC50 as greater potency. As usually defined, the MIC90 is the lowest concentration that inhibits either 90% of growth or 90% of the strains tested, depending on the study. Low readings indicate higher susceptibility, high ones lower susceptibility.

Values after ≈ are worked out from the molar mass of the structure shown. Read-outs that look alike come from different tables or passages of the source.

In the assay with C difficile isolates, `CO[C@H]1/C=C/O[C@@]2(C)Oc3c(C)c(O)c4c(O)c(c(/C=N/N5CCN(C)CC5)c(O)c4c3C2=O)NC(=O)/C(C)=C\C=C\[C@H](C)[C@H](O)[C@@H](C)[C@@H](O)[C@@H](C)[C@H](OC(C)=O)[C@@H]1C` [Rifampin, rifampin] showed an MIC50 of under 0.002 µg/mL and an MIC90 of 4 µg/mL (≈ 4.86 µM). The MIC50 in the assay on C difficile isolates (359 C difficile isolates) was under 0.002 µg/mL. Also, the “Resistant isolates, percent of 359” value with C difficile isolates (resistance = MIC≥32 μg/mL, for rifaximin b194 says 'rifaximin alone') was determined as 8%. In addition, the “Adherence of EAEC mixed with dialyzed supernatants from treated HEp-2 cells” value in the assay on EAEC is “adhered to chambers independently of the presence of HEp-2 cells”. In addition, the “EAEC O42 adherence to pretreated HEp-2 cells (microscopy, stacked-brick pattern)” value in the assay with EAEC strain O42 is “adhered in the traditional stacked-brick formation”. For the same compound, the “Cytokines detected in supernatants of treated HEp-2 cells” value in the assay on HEp-2 cells is given as “same profile, except that MIPS was not detected”.
